Measurements from PubChem BioAssay (NCI).
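Exposure lasted 48 hours, with cells grown in 96-well plates and compounds tested at five concentrations. TGI: concentration producing complete growth inhibition.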

Key:
Experiment in all cases: inhibition of tumour cell growth, NCI panel, 48 h
[1] = tested on: OVCAR-5 ovarian
[2] = tested on: SW-620 colon
[3] = tested on: SF-268 CNS
[4] = tested on: 786-0 renal
[5] = tested on: DU-145 prostate
[6] = tested on: K-562 leukemia
[7] = tested on: A549 NSCLC
[8] = tested on: SF-539 CNS
[9] = tested on: BT-549 breast
[10] = tested on: MDA-N
[11] = tested on: MDA-MB-231 breast
[12] = tested on: OVCAR-3 ovarian
[13] = tested on: HOP-62 NSCLC
[14] = tested on: SN12C renal
[15] = tested on: NCI-H23 lung
[16] = tested on: OVCAR-4 ovarian
[17] = tested on: CCRF-CEM leukemia
[18] = tested on: SR leukemia
[19] = tested on: RPMI-8226 leukemia
[20] = tested on: NCI-H460 lung

SMILES	TGI [1] [µM]	TGI [2] [µM]	TGI [3] [µM]	TGI [4] [µM]	TGI [5] [µM]	TGI [6] [µM]	TGI [7] [µM]	TGI [8] [µM]	TGI [9] [µM]	TGI [10] [µM]	TGI [11] [µM]	TGI [12] [µM]	TGI [13] [µM]	TGI [14] [µM]	TGI [15] [µM]	TGI [16] [µM]	TGI [17] [µM]	TGI [18] [µM]	TGI [19] [µM]	TGI [20] [µM]
C=CCC1(OCc2ccccc2)C(=O)C(=O)OC1C1COC(C)(C)O1 (stereo not drawn)	> 100	> 100	> 100	> 100	> 100	> 100	> 100	> 100	> 100	> 100	> 100	> 100	> 100	> 100	> 100	> 100	> 100	> 100	> 100	> 100
O=C1CCCN1C(=O)CS(=O)(=O)c1ccccc1	> 100	> 100	> 100	> 100	> 100	> 100	> 100	–	> 100	> 100	> 100	> 100	> 100	> 100	> 100	> 100	> 100	> 100	> 100	> 100
CO/C(=N\N=C\c1ccc(OC)c(OC)c1)c1ccncc1	–	> 10	> 10	> 10	> 10	> 10	> 10	> 10	> 10	> 10	> 10	–	> 10	> 10	> 10	> 10	> 10	> 10	> 10	> 10
C=CCN1C(=O)/C(=C/c2cccs2)N=C1SC/C=C/C	> 100	> 100	> 100	> 100	> 100	> 100	> 100	> 100	> 100	> 100	> 100	> 100	> 100	86.6	> 100	> 100	> 100	45.8	40.6	> 100
CC1=NC(=Cc2cccc(Cl)c2)C(=O)N1n1c(-c2ccccc2)nc2ccccc2c1=O	–	> 100	> 100	> 100	> 100	> 100	> 100	> 100	> 100	> 100	> 100	–	55.2	> 100	> 100	–	> 100	63.5	> 100	46.5
C/C(=N\Nc1ccc([N+](=O)[O-])cc1[N+](=O)[O-])c1sc(-n2nc(-c3ccccc3)cc2-c2ccccc2)nc1C	> 100	> 100	> 100	> 100	> 100	–	–	> 100	> 100	> 100	> 100	> 100	> 100	> 100	> 100	> 100	50.9	46.8	41.4	> 100
CN1c2ccccc2C(=O)NC12CCN(CCCC(=O)c1ccc(F)cc1)CC2	> 100	> 100	88.9	> 100	> 100	77.8	> 100	> 100	> 100	> 100	> 100	> 100	> 100	> 100	> 100	> 100	> 100	> 100	> 100	–
CC(=O)Nc1ccc(C(O)/C(=N/N)c2nc3ccc(Cl)cc3[nH]c2=O)cc1 (stereo not drawn)	> 100	> 100	> 100	> 100	> 100	–	> 100	> 100	> 100	> 100	> 100	> 100	> 100	> 100	> 100	> 100	> 100	> 100	–	> 100
C[C@]12CC[C@@H]3c4cc(OCC(F)(F)F)c(O)cc4CC[C@H]3[C@@H]1CC[C@@H]2O	37.7	9.03	35.2	18.1	29.4	13.5	20.6	7.27	89.6	1.29	3.11	12.9	26.7	15.5	19.3	> 53.1	15.2	2.47	23.1	15.5
N#Cc1sc2c(c1OC(=O)c1ccccc1)c(=O)n(-c1ccccc1)c(=S)n2-c1ccccc1	–	> 100	> 100	85.1	> 100	> 100	> 100	47.8	> 100	65.1	59.2	> 100	46.5	77.7	58.9	80.7	61.6	> 100	66.5	> 100
CCC(CCCN)Nc1cc(OC)cc2c(C)ccnc12 (stereo not drawn)	32.5	36.9	31.6	28.8	35.5	39.5	29.2	33.4	28.5	34.1	28.5	34.7	29.2	53.5	–	39	52.6	31.6	–	32.3
COC(=O)[C@H](CCSC)NC(=O)N[C@H](C)c1ccccc1	> 100	> 100	> 100	> 100	> 100	> 100	> 100	> 100	> 100	> 100	> 100	> 100	> 100	> 100	> 100	> 100	> 100	> 100	> 100	> 100
COc1cc2c(cc1OC)C1C=NC(C2)c2cc(OC)c(OC)cc21 (stereo not drawn)	> 100	> 100	> 100	> 100	> 100	> 100	> 100	> 100	> 100	> 100	> 100	> 100	> 100	> 100	–	> 100	–	> 100	> 100	> 100
O=C(NC1=C(Cl)C(=O)c2ccccc2C1=O)c1ccc(F)cc1	16.5	2.51	38.9	> 100	18.3	–	> 100	18.7	14.7	12.9	18.9	12.3	26.8	14.5	13.7	20	–	> 100	> 100	10.6
CC1=NN(C(=O)c2ccncc2)C(=O)C1	> 100	> 100	> 100	> 100	> 100	> 100	> 100	> 100	> 100	> 100	> 100	> 100	> 100	> 100	> 100	> 100	> 100	> 100	–	> 100
CCC1(c2ccccc2)C(=O)N=C(c2ccccc2)N1CCc1ccccc1 (stereo not drawn)	> 100	> 100	> 100	> 100	> 100	> 100	> 100	> 100	> 100	> 100	> 100	> 100	> 100	> 100	> 100	> 100	> 100	> 100	> 100	–
COc1ccc(C2SCC(=O)N2c2ccc(-c3ccc(-n4c(-c5ccccc5)nc5ccccc5c4=O)cc3)cc2)cc1OC (stereo not drawn)	–	> 100	> 100	> 100	> 100	96	> 100	> 100	51.1	> 100	> 100	> 100	37.6	> 100	> 100	> 100	92.5	> 100	> 100	> 100
COc1cc2c(c(OC)c1)/C(=C/Sc1ccccc1)C(=O)N(C(C)(C)C)C2	> 100	> 100	39	> 100	> 100	> 100	–	> 100	83	73	64.4	53.2	83.8	69	77.1	> 100	> 100	66.7	94.5	–
CC(C)(C)OC(=O)N/N=C(/N)Cc1ccc(Cl)cc1	> 100	> 100	> 100	> 100	> 100	> 100	> 100	–	> 100	> 100	> 100	> 100	> 100	> 100	–	> 100	> 100	> 100	–	> 100
COc1cc(C2SCC(=O)N2c2cccc(Cl)c2)cc(OC)c1OC (stereo not drawn)	> 100	> 100	> 100	> 100	> 100	> 100	> 100	> 100	> 100	43	> 100	–	–	> 100	> 100	> 100	91.2	> 100	> 100	> 100
CNC(=O)C1(N)c2ccccc2C=Cc2ccccc21	> 100	> 100	> 100	> 100	> 100	> 100	> 100	> 100	> 100	> 100	> 100	> 100	> 100	> 100	> 100	> 100	> 100	> 100	> 100	–
O=C(O)C12C3CCC(CC3)C1(C(=O)O)C1CCC2C1 (stereo not drawn)	> 100	> 100	> 100	> 100	> 100	> 100	> 100	> 100	> 100	> 100	> 100	> 100	> 100	> 100	> 100	–	> 100	> 100	> 100	> 100
O=C1OCC2OC(=O)c3cc(O)c(O)c(O)c3-c3c(O)c(O)c(O)c4c3C(=O)OC(C2OC(=O)c2cc(O)c(O)c(O)c2-c2c1cc(O)c(O)c2O)C1OC(=O)c2c-4c(O)c(O)c(O)c2[C@@H]1C(O)C(O)C(O)C(O)CO (stereo partly drawn)	33	44.5	47.4	34.7	47.5	33.3	43.7	–	55.2	25.5	30.5	80.6	34	32.6	43.5	41	23.7	> 100	73.8	39.5
COC(=O)[C@@H]1[C@H](OC(C)=O)CCC2[C@@]3(C[C@@H](c4ccoc4)O[C@@H]3OC)[C@H](C)CC[C@]21C(=O)OC (stereo partly drawn)	> 25	> 25	> 25	> 25	> 25	> 25	> 25	> 25	> 25	> 25	> 25	> 25	–	> 25	> 25	> 25	> 25	> 25	> 25	> 25
